The record followed here is ChEMBL document CHEMBL5244245, “Medicinal chemistry insights into novel CDC25 inhibitors” (Eur J Med Chem, 2020).

Experiment [1] is described as follows: Antitumor activity against human RPMI cells. It is filed as functional, cell-based.
Experiment [2] addresses T1, M-phase inducer phosphatase 1 (Homo sapiens, UniProt P30304).
T1 sequence (P30304 whole entry): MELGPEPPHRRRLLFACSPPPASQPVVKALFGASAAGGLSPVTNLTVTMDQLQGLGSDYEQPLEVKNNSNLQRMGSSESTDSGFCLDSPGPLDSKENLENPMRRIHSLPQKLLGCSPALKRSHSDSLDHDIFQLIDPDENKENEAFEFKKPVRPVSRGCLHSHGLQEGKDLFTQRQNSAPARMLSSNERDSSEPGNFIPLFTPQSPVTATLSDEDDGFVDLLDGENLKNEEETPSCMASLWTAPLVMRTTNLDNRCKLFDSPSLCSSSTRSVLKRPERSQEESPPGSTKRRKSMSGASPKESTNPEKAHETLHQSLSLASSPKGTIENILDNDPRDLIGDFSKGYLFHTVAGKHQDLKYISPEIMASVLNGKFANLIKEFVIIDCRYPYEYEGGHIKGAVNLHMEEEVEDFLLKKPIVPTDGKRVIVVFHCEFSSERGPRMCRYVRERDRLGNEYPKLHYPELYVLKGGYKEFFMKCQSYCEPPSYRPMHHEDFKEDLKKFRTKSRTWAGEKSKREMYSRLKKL
As to the kind of experiment: Inhibition of human CDC25A.

The target in experiment [3] is T2, M-phase inducer phosphatase 2 (Homo sapiens, UniProt P30305).
T2 sequence (P30305 whole entry): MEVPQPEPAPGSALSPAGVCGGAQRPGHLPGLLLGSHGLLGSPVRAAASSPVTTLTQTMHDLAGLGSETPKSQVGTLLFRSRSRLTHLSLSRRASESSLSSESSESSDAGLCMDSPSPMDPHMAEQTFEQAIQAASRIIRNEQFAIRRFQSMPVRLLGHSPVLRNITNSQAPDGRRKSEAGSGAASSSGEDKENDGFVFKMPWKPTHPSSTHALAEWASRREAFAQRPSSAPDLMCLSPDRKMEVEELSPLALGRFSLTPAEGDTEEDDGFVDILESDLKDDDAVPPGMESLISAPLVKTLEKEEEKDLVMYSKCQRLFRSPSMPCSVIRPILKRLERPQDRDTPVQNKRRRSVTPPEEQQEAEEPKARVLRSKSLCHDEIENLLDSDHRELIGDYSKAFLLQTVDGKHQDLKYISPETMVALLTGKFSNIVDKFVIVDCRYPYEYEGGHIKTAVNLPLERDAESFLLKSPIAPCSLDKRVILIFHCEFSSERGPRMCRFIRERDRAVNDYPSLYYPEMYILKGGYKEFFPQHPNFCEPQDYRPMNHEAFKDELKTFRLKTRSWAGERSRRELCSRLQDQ
As to the kind of experiment: Inhibition of human CDC25B.

For experiment [4], the target named is T3, M-phase inducer phosphatase 3 (Homo sapiens, UniProt P30307).
T3 sequence (P30307 whole entry): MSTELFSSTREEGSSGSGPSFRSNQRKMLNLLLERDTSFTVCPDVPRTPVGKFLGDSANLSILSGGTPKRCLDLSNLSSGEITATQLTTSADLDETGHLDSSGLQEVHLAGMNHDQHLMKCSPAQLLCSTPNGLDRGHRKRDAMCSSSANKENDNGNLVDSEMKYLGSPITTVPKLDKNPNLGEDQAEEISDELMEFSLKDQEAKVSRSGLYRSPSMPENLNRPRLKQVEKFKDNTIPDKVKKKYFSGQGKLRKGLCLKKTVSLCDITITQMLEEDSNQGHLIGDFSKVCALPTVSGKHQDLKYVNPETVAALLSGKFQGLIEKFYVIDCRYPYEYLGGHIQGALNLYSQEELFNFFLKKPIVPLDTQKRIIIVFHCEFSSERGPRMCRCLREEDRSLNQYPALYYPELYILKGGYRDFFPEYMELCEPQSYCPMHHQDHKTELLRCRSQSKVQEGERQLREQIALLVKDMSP
Description: Inhibition of human CDC25C.

For experiment [5], the target named is T1, M-phase inducer phosphatase 1. Description: Inhibition of CDC25A (unknown origin).
Experiment [6] has as its target T2, M-phase inducer phosphatase 2. As to the kind of experiment: Inhibition of CDC25B (unknown origin).
The target of experiment [7] is T3, M-phase inducer phosphatase 3. Description: Inhibition of CDC25C (unknown origin).
Experiment [8] concerns HeLa. Description: Cytotoxicity against human HeLa cells assessed as inhibition of cell growth incubated for 48 hrs by MTT assay. The format is functional, cell-based. In general terms: Formazan colour is commonly taken as a measure of viable cells.
Experiment [9] deals with T1, M-phase inducer phosphatase 1. Description: Inhibition of CDC25A (unknown origin) using fluorescein diphosphate as substrate.
Experiment [10] deals with T3, M-phase inducer phosphatase 3. As to the kind of experiment: Inhibition of recombinant N-terminal GST-tagged CDC25C (unknown origin) expressed in Escherichia coli BL21 (DE3) cells incubated for 2 hrs.
In experiment [11] the target is T2, M-phase inducer phosphatase 2. Description: Inhibition of recombinant N-terminal GST-tagged CDC25B (unknown origin) expressed in Escherichia coli BL21 (DE3) cells incubated for 2 hrs.
Experiment [12] deals with T1, M-phase inducer phosphatase 1. As to the kind of experiment: Inhibition of recombinant N-terminal GST-tagged CDC25A (unknown origin) expressed in Escherichia coli BL21 (DE3) cells incubated for 2 hrs.
Experiment [13] relates to HCT-116. Description: Antitumor activity against human HCT-116 cells. It is filed as functional, cell-based.
Experiment [14] concerns the target T2, M-phase inducer phosphatase 2. As to the kind of experiment: Inhibition of human recombinant CDC25B.
Experiment [15] deals with T1, M-phase inducer phosphatase 1. As to the kind of experiment: Inhibition of recombinant CDC25A (unknown origin).
Experiment [16] deals with T3, M-phase inducer phosphatase 3. Description: Inhibition of recombinant CDC25C (unknown origin).
For experiment [17], the target named is T2, M-phase inducer phosphatase 2. Description: Inhibition of recombinant CDC25B (unknown origin).
Experiment [18] has the same target. Description: Inhibition of recombinant N-terminal GST-tagged CDC25B (372 to 551 residues) (unknown origin) expressed in Escherichia coli BL21 (DE3) cells incubated for 45 mins.
Experiment [19] deals with T1, M-phase inducer phosphatase 1. As to the kind of experiment: Inhibition of N-terminal FLAG-tagged wild type CDC25A (331 to 524 residues) (unknown origin) expressed in Escherichia coli BL21 (DE3) cells incubated for 45 mins.

One may read the IC50 as the concentration that gives 50% inhibition. `CCNC1=C(F)C(=O)c2c(F)c(F)c(F)c(F)c2C1=O` had an IC50 in experiment [1] of 0.7 µM.

In turn, `O=C1C(F)=C(Nc2ccccc2)C(=O)c2c(F)c(F)c(F)c(F)c21` had an IC50 in experiment [1] of 0.8 µM.

Regarding `O=C(O)c1ccc(NC2=C(Cl)C(=O)c3ccccc3C2=O)cc1`, the figures for the IC50 in experiment [2], in experiment [3] and in [4] were 3.19 µM, 11.1 µM and 5.41 µM, respectively.

With `O=C(O)C1CCCCC1c1c2ccc(=O)cc-2oc2cc(O)ccc12` (stereo not drawn), the results for the IC50 in experiment [5], in experiment [6] and in experiment [7] were 0.65 µM, 0.78 µM and 3.5 µM, respectively.

As to `CCCc1cc(O)nc(SCC(=O)NCCSCc2ccco2)n1`, the IC50 in [8] amounted to 66.3 µM; in [9], 7.9 µM.

In the case of `COc1ccc2c(CSC3=CC(=O)c4ccccc4C3=O)cc(=O)oc2c1`, the IC50 in [10] was found to be 0.9 µM; in experiment [11], 9.1 µM; in [12], 4.3 µM.

Take `CCSC1=C(C)C(=O)c2ccccc2C1=O`: the IC50 is 5.5 µM in experiment [5] and 4.7 µM in experiment [6].

For `CC(C)=CCOc1ccc(C(=O)/C=C/c2ccc(Cl)cc2)c(O)c1`, in [13], the midpoint of inhibition, the IC50, lay at 0.89 µM.

Consider `CC(C)n1c2c(=O)c(-c3ccc(F)cc3)cc(=O)c2c2c(=O)c3ccccc3c21`, for which the figures for the IC50 in [5] and in [7] were 2.73 µM and 2.55 µM, respectively.

With `Cc1cc(=O)c2c(c1=O)c1c(=O)c3ccccc3c1n2C(C)C`, the IC50 in experiment [5] worked out at 2 µM; in experiment [7], 2.51 µM.

With `CCOC(=O)c1ccc(N2C(=O)/C(=C\c3cccc(C)c3)SC2c2ccccc2)cc1` (stereo not drawn), the IC50 in experiment [3] worked out at 39 µM.

Consider `CCOC(=O)C1=C(C)N=c2s/c(=C\c3cc(Br)c(O)c(Br)c3)c(=O)n2C1c1ccc2c(c1)OCO2` (stereo not drawn), for which the IC50 in experiment [14] is 4.5 µM.

For `CN(C)CCNC1=CC(=O)c2nc(-c3cc(F)ccc3F)oc2C1=O`, the IC50 in experiment [15] stood at 0.023 µM; in experiment [16], 0.023 µM; in experiment [17], 0.053 µM.

With `C[C@@H](C[C@@H](O)C(C)(C)C=O)[C@@H]1CC[C@]2(C)C3=CC[C@H]4C(C)(C)C(=O)CC[C@]4(C)[C@H]3CC[C@@]12C`, half-maximal inhibition in [6] (IC50) was put at 2.1 µM.

Consider `N#Cc1c(F)cc(O)cc1SCCS(=O)(=O)O`, for which the IC50 amounted to 1000 µM in [18] and 2200 µM in experiment [19].

Compound `CCOC(=O)C1=C(C)N=c2s/c(=C\c3ccc(-n4cc(CNC(=O)Nc5sccc5C(=O)O)nn4)cc3)c(=O)n2C1c1ccccc1` (stereo not drawn) yielded an IC50 in [6] of 3 µM.

Turning to `CC(C)n1c2c(=O)c(-c3ccco3)cc(=O)c2c2c(=O)c3ccccc3c21`, the IC50 came to 1.68 µM in [5] and 1.72 µM in experiment [7].

Consider `CCCCOc1cc2c(c3c(=O)oc4ccccc4c13)C(=O)C=CC2=O`, for which the IC50 in [5] was determined as 13.2 µM; in [6] it was 46.1 µM; in experiment [7], 9 µM.

Take `CC(C)n1c2c(=O)c(-c3ccccc3)cc(=O)c2c2c(=O)c3ccccc3c21`: the IC50 is 2.01 µM in experiment [5] and 2 µM in [7].

Take `Cc1nc2c(s1)C(=O)C=C(NCCN(C)C)C2=O`: the IC50 was 0.023 µM in experiment [15], 0.023 µM in experiment [16] and 0.053 µM in experiment [17].

`COC1=CC(=O)C=C([S@@+]([O-])c2ccc(C)cc2)C1=O`: the figures for the IC50 in [2], in experiment [3] and in experiment [4] were 2.6 µM, 6.99 µM and 5.72 µM, respectively.

As for `CCCCCCCCCCCC/C=C/[C@]12C(=O)O[C@]3(C)O[C@]4(C)OC(=O)C(=C[C@H]1CCCCCCCCCCCC)C4C32` (single isomer, unassigned), in experiment [6], the IC50 was determined as 6.44 µM.
